The text below walks through data of patent publication US20140024716A1, “Composition Comprising S-Allyl-L-Cysteine as Active Ingredient for Preventing or Treating Gastrointestinal Disorders” (PHARMAKING CO., LTD., priority 2009, published 2014).

Values joined by “and” are separate entries in the source; they are usually repeats but may differ in a detail not shown here. Equal values may be shown once. “Also recorded” adds a separate entry of the source.

The subject of one test is Helicobacter pylori. Briefly: Serologic parameters (GOT, GPT) in Helicobacter pylori-infected mouse model. Conditions: SAC1 and SAC2 groups. The class given is in vivo, C57BL/6 mice. Here is the method: (§1) 8-week old male C57BL/6 mice were classified into 4 groups, i.e., a positive control group (to which Helicobacter pylori was administered; PC), a negative control group (to which saline was administered; NC), experimental group 1 (to which Helicobacter pylori and 200 mg/kg of SAC were administered; SAC1), and experimental group 2 (to which Helicobacter pylori and 400 mg/kg of SAC were administered; SAC2). Each group had 10 mice. White powdered SAC was diluted in tap water to concentrations of 20 mg/mL and 40 mg/mL and 10 μl/g (body weight) of the diluted SAC was orally administered to the mice of the SAC1 and SAC2 groups three times a week for 10 weeks. The mice were given free access to tap water for the entire test period. The Helicobacter pylori was collected with saline to a concentration of 1×10^9 CFU/mL, and 0.2 mL of the diluted Helicobacter pylori was orally administered to each mouse for 8 weeks from 2 weeks after SAC administration. The mice were fasted for 8 hours before the infection, and 0.15 mL of 0.2 M sodium bicarbonate (NaHCO3) was administered to each mouse 10 minutes before the administration of Helicobacter pylori in order to neutralize acidified stomach due to the fasting. The same amount of saline instead of the infectious substances was administered into the NC group. The mice of all groups were fed with a normal diet. […]

Test [1] concerns gastric lesions of rats induced by hydrochloric acid-ethanol. As to the kind of experiment: Hydrochloric acid-ethanol-induced gastric lesion animal model. It is filed as in vivo, Sprague-Dawley rats. Conditions: for lengths of gastric lesions: 1 h before HCl-ethanol; for lengths of gastric lesions / gastric lesion inhibiting rate (%): p<0.01. An excerpt:
(§2) SAC was purchased from TCI Chemical Co. (Tokyo, Japan). Sterile water for injection (Model No. 73H5F21, Dae Han Pharmaceutical Co. Ltd.) was used as a vehicle, and Stillen® was used as a positive control material. 0.5% CMC-Na and sterile water for injection were used as excipients for Stillen®. Hydrochloric acid was purchased from Samjung Chemical, Co., ethanol was purchased from Baker, Co., aspirin was purchased from Sigma, Co., and indomethacin was purchased from Sigma, Co.
(§3) 7 to 8-week old male specific pathogen free (SPF) HsdKoat:Sprague-Dawley®™ SD®™rats (weight of 7-week old males was in the range of 208.44 to 227.39 g, and weight of 8-week old maleswas in the range of 223.85 to 245.03 g, purchased from Koatech, Co. Ltd., Gyunggido, Korea) were quarantined and acclimated in the Animal Lab for 7 days. The rats were bred at a temperature of 23 3° C., at a relative humidity of 55 15%, with light for 12 hours (light turned on at 08:00 and light turned off at 20:00) while air was ventilated 10 to 20 times/hr in the Animal Experiment Lab of Gyeonggi Bio-Center. Other environments for breeding which might influence the test for the entire test period were not considered for use. The rats were given free access to a solid laboratory diet (Harlan Co. Ltd., USA. Teklad certified global 18% protein rodent diet, 2918C) that was supplied by Folas International. […] The rats were given free access to tap water that was sterilized using a UV sterilizer and a micro filter with water bottles.
(§4) The rats were classified into a vehicle control group G1 to which only a vehicle was administered, a experimental group G2 to which 100 mg/kg of SAC was administered, a experimental group G3 to which 200 mg/kg of SAC was administered, a experimental group G4 to which 400 mg/kg of SAC was administered, and a positive control group G5 to which 100 mg/kg of Stillen® (55.6 mg/kg as an active ingredient) as a positive control material were administered. Each group included 8 rats in a hydrochloric acid-ethanol-induced animal model (Experiment Example 7) and included 6 rats in an aspirin-induced animal model (Experimental Example 8) and in an indomethacin-induced animal model (Experimental Example 9).
(§5) The test substance was directly administered to the stomach using an injection tube equipped with a sonde for oral administration in a single dose once per day.
The test substances were administered. After one hour, 1.5 ml of 150 mM HCl in 60% ethanol was orally administered to each rat. The rats to which ethanol and SAC were administered were fasted without water in stainless steel breeding cages for 1 hour. After one hour from the hydrochloric acid-ethanol administration, the rats were sacrificed under anesthesia using ether and their stomachs including parts of the duodenum and esophagus were isolated. The insides of the stomachs were immediately washed with 13 ml of a 2% neutral buffered formalin, and the duodenum and esophagus parts were fixed with forceps. Then, 13 ml of the 2% neutral buffered formalin was added thereto and maintained for 5 minutes for fixation. The greater curvature of each stomach was incised, fixed to a dissection table, and unfolded to measure the lengths of gastric lesions using vernier calipers. Photographs of the unfolded stomachs were taken (FIG. 12) and the stomachs were fixed with a 10% neutral buffered formalin. […]

The test system of test [2] is gastric lesions of rats induced by indomethacin. As to the kind of experiment: Indomethacin-induced gastric lesion animal model. It is filed as in vivo, Sprague-Dawley rats.
Description: as §2, §3, §4, §5
The rats were fasted for more than 24 hours in a normal environment, SAC was administered, and 25 mg/kg of indomethacin in distilled water was orally administered after 30 minutes. After six hours from the indomethacin administration, the rats were sacrificed under ether anesthesia and their stomachs including parts of the duodenum and esophagus were isolated. The stomachs were fixed for 10 minutes by injecting 12 ml of 2% formalin, the greater curvature of each stomach was incised and unfolded, photographs of the lesions were taken, and then the areas of the lesions were measured using an image analyzer.
The gastric lesion inhibiting rate (%) was calculated in the same manner as in Experimental Example 8.

Another test concerns TNF-α. As to the kind of experiment: Serum TNF-α in Helicobacter pylori-infected mice. The class given is in vivo, C57BL/6 mice. Conditions: SAC1 and SAC2 groups (200 and 400 mg/kg SAC), p<0.09. The method, then: as §1, with “administration.” for “administration. The mice were fasted for 8 hours before the infection, and 0.15 mL of 0.2 M sodium bicarbonate (NaHCO3) was administered to each mouse 10 minutes before the administration of Helicobacter pylori in order to neutralize acidified stomach due to the fasting. The same amount of saline instead of the infectious substances was administered into the NC group. The mice of all groups were fed with a normal diet.”
In order to observe the effect of SAC on an inflammation factor of TNF-α in serum, a commercially available mouse TNF-α antibody analysis kit Microplate (R&D systems Inc., USA) was used and concentrations of TNF-α in serum of mice were measured according to the manuals of the kit.

In the case of `C=CCSC[C@H](N)C(=O)O` [SAC, S-allyl-L-cysteine], in the test on Helicobacter pylori (not significantly different), the “serum GPT level versus PC group” value is recorded as “less than that of the PC group; also recorded: less than the positive control group”. Further, in the test with Helicobacter pylori (not significantly different (p<0.08)), the “serum GOT level versus PC group” value was “less than that of the PC group; also recorded: less than the positive control group”. Further, the “lengths of gastric lesions” value in test [1] (200 mg/kg SAC oral, vehicle 209.60±28.39 mm) came out at 106.65±16.70 mm; in test [1] (400 mg/kg SAC oral), 72.25±19.33 mm. Moreover, the entries for the “gastric lesion inhibiting rate (%)” value in test [1] (200 mg/kg SAC) and in test [1] (400 mg/kg SAC) were 41.12±7.97% and 65.53±9.22%, respectively. Besides, the “gastric lesion inhibiting rate (%) up to” value in test [1] (highest rate over SAC doses) is reported as “about 66%”; in test [2] (highest rate over SAC doses), “about 94%”. Also, the “gross finding of stomach” value in test [2] (200 mg/kg and 400 mg/kg SAC) is “light gastric lesions and no bleedings”. Moreover, the “Ulcer area of individual animal (Animal number 1-6)” value is 1.3 and 1.6 and 1.5 and 9.4 and 2.3 in test [2] (G2: 100 mg/kg SAC); 0.0 and 0.3 and 0.9 and 0.6 and 0.7 and 0.4 in test [2] (G3: 200 mg/kg SAC); 0.8 and 0.4 and 0.1 (2×) and 0.2 and 1.0 in test [2] (G4: 400 mg/kg SAC). Besides, the “Ulcer Area (mm^2), group mean” value was 3.2±3.47 mm^2 and 3.2 mm^2 in test [2] (G2: 100 mg/kg SAC oral, 30 min before 25 mg/kg indomethacin); 0.5±0.30 mm^2 and 0.5 mm^2 in test [2] (G3: 200 mg/kg SAC, n = 6); 0.4±0.36 mm^2 and 0.4 mm^2 in test [2] (G4: 400 mg/kg SAC, n = 6). Also, the “serum TNF-α versus PC group” value with TNF-α is listed as “reduced; also recorded: less than that of the PC group”.
